In patent US6706663B2, “Herbicidal 3-heterocyclic substituted benzisothiazole and benzisoxazole compounds” (Wyeth, priority 2000, dated 2004):

Tests used:
GALAP (Galium aparine) [1] = test: Postemergence herbicidal evaluation; assay type: in vivo; details: for GALAP herbicidal rating: postemergence
How it was run: (§1)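 Visual 0–9 injury scores versus control plants, covering stand, vigour, malformation, size, chlorosis and general appearance, taken four to five weeks post-spray and averaged over replicate tests. Plants were sprayed at roughly two weeks old and held on greenhouse benches.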

[2] = test system: ECHCG (Echinochloa crus-galli); test: Postemergence herbicidal evaluation; assay type: in vivo, (L.) Beau; details: for ECHCG herbicidal rating: postemergence
How it was run: as §1

SETVI (Setaria viridis) = test: Postemergence herbicidal evaluation; assay type: in vivo, (L.) Beau; details: for SETVI herbicidal rating: postemergence
How it was run: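 Visual injury score (0-9: stand, vigor, malformation, size, chlorosis, overall appearance vs untreated control) taken four to five weeks post-spray. Two-week-old seedlings received about 0.0040 to 1.000 kg/ha active compound in acetone/water with 0.5% TWEEN 20.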

[3] = test system: TRZAWR (Wheat, Winter, cv Riband); test: Postemergence herbicidal evaluation; assay type: in vivo, Triticum aestivum; details: for TRZAWR herbicidal rating: postemergence
How it was run: as §1

ZEAMX (Corn, Field) = test: Postemergence herbicidal evaluation; assay type: in vivo, Zea mays, L.; details: for ZEAMX herbicidal rating: postemergence
How it was run: as §1

GALAP (Galium aparine) [4] = test: Preemergence herbicidal evaluation; assay type: in vivo; details: preemergence, rated 4-5 weeks after treatment
How it was run: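 Steps: mix seeds with potting soil; plant on ~1 inch soil per cup; spray compound in aqueous acetone; hold on greenhouse benches with routine watering; rate 0–9 visually against control at 4–5 weeks.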

ORYSAT (Rice, Tebonnet) = test: Preemergence herbicidal evaluation; assay type: in vivo, Oryza sativa, (L.) Tebonnet; details: rated 4-5 weeks after treatment
[5] = test system: ECHORC (Echinochloa oryzoides); test: Flooded paddy, preemergence weed control; assay type: in vivo, Echinochloa oryzoides (Ard.) Fritsch.; details: rated 3-4 weeks after treatment, 0-9 rating scale
How it was run: (§2)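 Silt loam, sowing depth ≤0.5 cm; permanent flood 1.5–3 cm above soil; greenhouse culture after treatment. Readout: 0-9 visual scale (stand, vigor, malformation, size, chlorosis, appearance) vs control.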

[6] = test system: CYPSE (Cyperus serotinus); test: Flooded paddy, preemergence weed control; assay type: in vivo, Rottb.; details: rated 3-4 weeks after treatment, 0-9 rating scale
How it was run: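 Herbicidal effect was scored visually on a 0–9 scale against an untreated control 3–4 weeks after treatment. Compounds were applied preemergence as 50/50 v/v aqueous/acetone mixtures into flood water (1.5–3 cm deep over silt loam), at roughly 0.0080 to 0.1250 kg/ha active ingredient.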

[7] = test system: SAGPY (Sagittaria pygmaea); test: Flooded paddy, preemergence weed control; assay type: in vivo, L.; details: rated 3-4 weeks after treatment, 0-9 rating scale
How it was run: as §2

| Molecule | Postemergence herbicidal rating, GALAP (GALAP (Galium aparine) [1]; rate 0.0320 kg/ha) | Postemergence herbicidal rating, GALAP (GALAP (Galium aparine) [1]; rate 0.0620 kg/ha) | Postemergence herbicidal rating, ECHCG ([2]; rate 0.0320 kg/ha) | Postemergence herbicidal rating, ECHCG ([2]; rate 0.0620 kg/ha) | Postemergence herbicidal rating, SETVI (SETVI (Setaria viridis); rate 0.0320 kg/ha) | Postemergence herbicidal rating, SETVI (SETVI (Setaria viridis); rate 0.0620 kg/ha) | Postemergence herbicidal rating, TRZAWR ([3]; rate 0.0320 kg/ha) | Postemergence herbicidal rating, TRZAWR ([3]; rate 0.0620 kg/ha) | Postemergence herbicidal rating, ZEAMX (ZEAMX (Corn, Field); rate 0.0320 kg/ha) | Postemergence herbicidal rating, ZEAMX (ZEAMX (Corn, Field); rate 0.0620 kg/ha) | herbicidal rating, ECHORC ([5]; rate 0.0320 kg/ha) | herbicidal rating, ECHORC ([5]; rate 0.1250 kg/ha) | herbicidal rating, CYPSE ([6]; rate 0.0320 kg/ha) | herbicidal rating, CYPSE ([6]; rate 0.1250 kg/ha) | Preemergence herbicidal rating ORYSAT (ORYSAT (Rice, Tebonnet); Rate 0.0620 kg/ha) | Preemergence herbicidal rating ORYSAT (ORYSAT (Rice, Tebonnet); Rate 0.1250 kg/ha) | herbicidal rating, ECHORC ([5]; rate 0.0080 kg/ha) | herbicidal rating, SAGPY ([7]; rate 0.0080 kg/ha) | herbicidal rating, SAGPY ([7]; rate 0.0320 kg/ha) | herbicidal rating, SAGPY ([7]; rate 0.1250 kg/ha) | also measured |
| --- | --- | --- | --- | --- | --- | --- | --- | --- | --- | --- | --- | --- | --- | --- | --- | --- | --- | --- | --- | --- | --- |
| Cn1c(C(F)(F)F)cc(=O)n(-c2ccc3snc(C(SCCO)SCCO)c3c2)c1=O [Compound 33, 1,2-benzisothiazole-3-carboxaldehyde, 5-[3,6-dihydro-3-methyl-2,6-dioxo-4-(trifluoromethyl)-1(2H)-pyrimidinyl]-, 3-[bis(2-hydroxyethyl)dithioacetal]] | 0.0 | 3.0 | 1.0 | 3.0 | 1.0 | 4.0 | 4.0 | 5.0 | 5.0 | 5.5 | 0.0 | 2.0 | 0.0 | 0.0 | – | – | – | – | – | – | GALAP preemergence herbicidal rating (GALAP (Galium aparine) [4]; Rate 0.0620 kg/ha): 3.0; GALAP preemergence herbicidal rating (GALAP (Galium aparine) [4]; Rate 0.1250 kg/ha): 2.0; GALAP preemergence herbicidal rating (GALAP (Galium aparine) [4]; Rate 0.2500 kg/ha): 7.0; ORYSAT preemergence herbicidal rating (ORYSAT (Rice, Tebonnet); Rate 0.0620 kg/ha): 0.0; ORYSAT preemergence herbicidal rating (ORYSAT (Rice, Tebonnet); Rate 0.1250 kg/ha): 3.0; ORYSAT preemergence herbicidal rating (ORYSAT (Rice, Tebonnet); Rate 0.2500 kg/ha): 6.0 |
| Cn1c(C(F)(F)F)cc(=O)n(-c2ccc3snc(C4(C)OCCO4)c3c2)c1=O [Compound 54, 1-methyl-3-[3-(2-methyl-1,3-dioxolan-2-yl)-1,2-benzisothiazol-5-yl]-6-(trifluoromethyl)uracil] | – | – | – | – | – | – | – | – | – | – | 8.0 | 9.0 | 9.0 | 9.0 | 9.0 | 9.0 | 8.0 | 0.0 | 7.0 | 9.0 | GALAP herbicidal rating (GALAP (Galium aparine) [1]; rate 0.0320 kg/ha): 5.0; GALAP herbicidal rating (GALAP (Galium aparine) [1]; rate 0.0620 kg/ha): 9.0; GALAP herbicidal rating (GALAP (Galium aparine) [1]; rate 0.1250 kg/ha): 9.0; ECHCG herbicidal rating ([2]; rate 0.0320 kg/ha): 1.0; ECHCG herbicidal rating ([2]; rate 0.0620 kg/ha): 3.0; ECHCG herbicidal rating ([2]; rate 0.1250 kg/ha): 3.0; SETVI herbicidal rating (SETVI (Setaria viridis); rate 0.0320 kg/ha): 3.0; SETVI herbicidal rating (SETVI (Setaria viridis); rate 0.0620 kg/ha): 9.0; SETVI herbicidal rating (SETVI (Setaria viridis); rate 0.1250 kg/ha): 8.0; TRZAWR herbicidal rating ([3]; rate 0.0320 kg/ha): 5.0; TRZAWR herbicidal rating ([3]; rate 0.0620 kg/ha): 6.5; TRZAWR herbicidal rating ([3]; rate 0.1250 kg/ha): 7.5; ZEAMX herbicidal rating (ZEAMX (Corn, Field); rate 0.0320 kg/ha): 4.0; ZEAMX herbicidal rating (ZEAMX (Corn, Field); rate 0.0620 kg/ha): 4.0; ZEAMX herbicidal rating (ZEAMX (Corn, Field); rate 0.1250 kg/ha): 5.5; Preemergence herbicidal rating ORYSAT (ORYSAT (Rice, Tebonnet); Rate 0.2500 kg/ha): 9.0 |
| 1-methyl-3-[3-(1,3-oxathiolan-2-yl)-1,2-benzisothiazol-5-yl]-6-(trifluoromethyl)uracil S′,S′-dioxide [Compound 32] | 2.0 | 6.0 | 3.0 | 5.0 | 3.0 | 6.0 | 5.0 | 5.5 | 5.5 | 5.5 | 0.0 | 0.0 | 0.0 | – | – | – | – | – | – | – | GALAP preemergence herbicidal rating (GALAP (Galium aparine) [4]; Rate 0.0620 kg/ha): 9.0; GALAP preemergence herbicidal rating (GALAP (Galium aparine) [4]; Rate 0.1250 kg/ha): 9.0; GALAP preemergence herbicidal rating (GALAP (Galium aparine) [4]; Rate 0.2500 kg/ha): 9.0; ORYSAT preemergence herbicidal rating (ORYSAT (Rice, Tebonnet); Rate 0.0620 kg/ha): 5.0; ORYSAT preemergence herbicidal rating (ORYSAT (Rice, Tebonnet); Rate 0.1250 kg/ha): 7.5; ORYSAT preemergence herbicidal rating (ORYSAT (Rice, Tebonnet); Rate 0.2500 kg/ha): 8.5 |
| Cc1csc(-c2nsc3ccc(-n4c(=O)cc(C(F)(F)F)n(C)c4=O)cc23)n1 [Compound 7, 1-methyl-3-[3-(4-methyl-2-thiazolyl)-1,2-benzisothiazol-5-yl]-6-(trifluoromethyl)uracil] | 2.0 | 9.0 | 0.0 | 0.0 | 0.0 | 0.0 | 4.5 | 5.5 | 5.0 | 6.0 | 5.0 | 9.0 | 0.0 | 0.0 | – | – | 0.0 | 0.0 | 0.0 | 1.0 | Postemergence herbicidal rating, GALAP (GALAP (Galium aparine) [1]; rate 0.1250 kg/ha): 7.0; Postemergence herbicidal rating, ECHCG ([2]; rate 0.1250 kg/ha): 0.0; Postemergence herbicidal rating, SETVI (SETVI (Setaria viridis); rate 0.1250 kg/ha): 2.0; Postemergence herbicidal rating, TRZAWR ([3]; rate 0.1250 kg/ha): 6.0; Postemergence herbicidal rating, ZEAMX (ZEAMX (Corn, Field); rate 0.1250 kg/ha): 7.5; ORYSAT preemergence herbicidal rating (ORYSAT (Rice, Tebonnet); Rate 0.0620 kg/ha): 0.0; ORYSAT preemergence herbicidal rating (ORYSAT (Rice, Tebonnet); Rate 0.1250 kg/ha): 0.0; ORYSAT preemergence herbicidal rating (ORYSAT (Rice, Tebonnet); Rate 0.2500 kg/ha): 0.0; herbicidal rating, CYPSE ([6]; rate 0.0080 kg/ha): 0.0 |
| C[C@@H]1OC(c2nsc3ccc(-n4c(=O)cc(C(F)(F)F)n(C)c4=O)cc23)O[C@@H]1C (stereo partly drawn) [Compound 47, 3-[3-[(4R,5S)-4,5-dimethyl-1,3-dioxolan-2-yl]-1,2-benzisothiazol-5-yl]-1-methyl-6-(trifluoromethyl)uracil] | 9.0 | 9.0 | 0.0 | 3.0 | 9.0 | 9.0 | 5.0 | 6.0 | 3.5 | 4.0 | 8.5 | 9.0 | 9.0 | 9.0 | 7.5 | 7.5 | 5.0 | 0.0 | 7.5 | 9.0 | Preemergence herbicidal rating ORYSAT (ORYSAT (Rice, Tebonnet); Rate 0.2500 kg/ha): 9.0 |
| C[C@@H]1C[C@H](C)OC(c2nsc3ccc(-n4c(=O)cc(C(F)(F)F)n(C)c4=O)cc23)O1 (stereo partly drawn) [Compound 50, 3-[3-[(4R,6S)-4,6-dimethyl-m-dioxan-2-yl]-1,2-benzisothiazol-5-yl]-1-methyl-6-(trifluoromethyl)uracil] | – | – | – | – | – | – | – | – | – | – | 7.5 | 9.0 | 5.0 | 7.0 | 6.5 | 8.5 | 7.0 | 0.0 | 0.0 | 4.5 | GALAP herbicidal rating (GALAP (Galium aparine) [1]; rate 0.0320 kg/ha): 3.0; GALAP herbicidal rating (GALAP (Galium aparine) [1]; rate 0.0620 kg/ha): 8.0; ECHCG herbicidal rating ([2]; rate 0.0320 kg/ha): 3.0; ECHCG herbicidal rating ([2]; rate 0.0620 kg/ha): 3.0; SETVI herbicidal rating (SETVI (Setaria viridis); rate 0.0320 kg/ha): 9.0; SETVI herbicidal rating (SETVI (Setaria viridis); rate 0.0620 kg/ha): 9.0; TRZAWR herbicidal rating ([3]; rate 0.0320 kg/ha): 4.5; TRZAWR herbicidal rating ([3]; rate 0.0620 kg/ha): 4.5; ZEAMX herbicidal rating (ZEAMX (Corn, Field); rate 0.0320 kg/ha): 4.0; ZEAMX herbicidal rating (ZEAMX (Corn, Field); rate 0.0620 kg/ha): 5.0; Preemergence herbicidal rating ORYSAT (ORYSAT (Rice, Tebonnet); Rate 0.2500 kg/ha): 9.0 |
| CC1COC(c2nsc3ccc(-n4c(=O)cc(C(F)(F)F)n(C)c4=O)cc23)O1 (centres unmarked) [Compound 57, 1-methyl-3-[3-(4-methyl-1,3-dioxolan-2-yl)-1,2-benzisothiazol-5-yl]-6-(trifluoromethyl)uracil] | – | – | – | – | – | – | – | – | – | – | 8.0 | 9.0 | 9.0 | 9.0 | 8.0 | 8.0 | 5.0 | 0.0 | 4.5 | 7.5 | GALAP herbicidal rating (GALAP (Galium aparine) [1]; rate 0.0320 kg/ha): 6.0; GALAP herbicidal rating (GALAP (Galium aparine) [1]; rate 0.0620 kg/ha): 9.0; ECHCG herbicidal rating ([2]; rate 0.0320 kg/ha): 3.0; ECHCG herbicidal rating ([2]; rate 0.0620 kg/ha): 3.0; SETVI herbicidal rating (SETVI (Setaria viridis); rate 0.0320 kg/ha): 4.0; SETVI herbicidal rating (SETVI (Setaria viridis); rate 0.0620 kg/ha): 9.0; TRZAWR herbicidal rating ([3]; rate 0.0320 kg/ha): 4.5; TRZAWR herbicidal rating ([3]; rate 0.0620 kg/ha): 5.0; ZEAMX herbicidal rating (ZEAMX (Corn, Field); rate 0.0320 kg/ha): 5.0; ZEAMX herbicidal rating (ZEAMX (Corn, Field); rate 0.0620 kg/ha): 5.5; Preemergence herbicidal rating ORYSAT (ORYSAT (Rice, Tebonnet); Rate 0.2500 kg/ha): 9.0 |
